Assay results: ChEMBL document CHEMBL1145504, “Sensitivity of monkey B virus (Cercopithecine herpesvirus 1) to antiviral drugs: role of thymidine kinase in antiviral activities of substrate analogs and acyclonucleosides” (Antimicrob Agents Chemother, 2007)
“And” between values parts separate entries of the source, which are not always exact repeats. Identical values can stand only once. The source made the active and inactive calls. The calls are words filed in the database; no cut-off is given here.

T1: Thymidine kinase (Macacine herpesvirus 1) (UniProt A3RLP8)
T1 sequence (whole entry): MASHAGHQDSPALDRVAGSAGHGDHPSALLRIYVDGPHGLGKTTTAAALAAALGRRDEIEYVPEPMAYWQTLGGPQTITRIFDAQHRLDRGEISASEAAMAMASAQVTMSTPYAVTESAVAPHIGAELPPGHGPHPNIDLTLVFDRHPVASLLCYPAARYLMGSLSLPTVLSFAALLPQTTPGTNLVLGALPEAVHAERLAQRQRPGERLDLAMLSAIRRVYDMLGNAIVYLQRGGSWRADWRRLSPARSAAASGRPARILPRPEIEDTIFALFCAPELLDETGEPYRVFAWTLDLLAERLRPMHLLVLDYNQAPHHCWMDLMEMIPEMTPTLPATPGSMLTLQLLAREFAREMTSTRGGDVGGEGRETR

T2: Thymidine kinase (Macacine herpesvirus 1, UniProt A3RLP8)
T2 sequence (A3RLP8 whole entry): T1 sequence (whole entry)

B1: Thymidine kinase (Macacine herpesvirus 1), A3RLP8 (protein)
chain: T1 sequence (whole entry)
B2: Thymidine kinase (Human alphaherpesvirus 1), Q9QNF7 (protein)
chain: MASYPCHQHASAFDQAARSRGHSNRRTALRPRRQQEATEVRLEQKMPTLLRVYIDGPHGMGKTTTTQLLVALGSRDDIVYVPEPMTYWQVLGASETIANIYTTQHRLDQGEISAGDAAVVMTSAQITMGMPYAVTDAVLAPHIGGEAGSSHAPPPALTLIFDRHPIAALLCYPAARYLMGSMTPQAVLAFVALIPPTLPGTNIVLGALPEDRHIDRLAKRQRPGERLDLAMLAAIRRVYGLLANTVRYLQGGGSWREDWGQLSGTAVPPQGAEPQSNAGPRPHIGDTLFTLFRAPELLAPNGDLYNVFAWALDVLAKRLRPMHVFILDYDQSPAGCRDALLQLTSGMVQTHVTTPGSIPTICDLARTFAREMGEAN

Assays:
[1] = biological target: T1, Thymidine kinase (Macacine herpesvirus 1); assay: Activity of Herpes B virus recombinant thymidine kinase at 100 uM; conditions: Macacine alphaherpesvirus 1
Thymidine kinase = biological target: T2, Thymidine kinase
Human alphaherpesvirus 1 = assay: microbe, parasite or virus in culture; assay type: functional, organism-based; conditions: Human alphaherpesvirus 1, F, Vero
[2] = system: Macacine alphaherpesvirus 1; assay: microbe, parasite or virus in culture; assay type: functional, organism-based; conditions: Macacine alphaherpesvirus 1, Vero
[3] = system: Macacine alphaherpesvirus 1; assay: microbe, parasite or virus in culture; assay type: functional, organism-based; conditions: Macacine alphaherpesvirus 1, Vero; remark: listed apart in the source
[4] = Cytotoxicity against african green monkey Vero cells after 2 days; assay type: cell-based; conditions: chlorocebus sabaeus
[5] = biological target: T1, Thymidine kinase (Macacine herpesvirus 1); conditions: Macacine alphaherpesvirus 1; 100 uM
[6] = biological target: T1, Thymidine kinase (Macacine herpesvirus 1); assay: Activity of Herpes B virus recombinant thymidine kinase at 1 mM; conditions: Macacine alphaherpesvirus 1
[7] = system: Macacine alphaherpesvirus 1; assay: microbe, parasite or virus in culture; assay type: functional, organism-based; conditions: Macacine alphaherpesvirus 1, Vero; remark: listed apart in the source
[8] = substrate: O=c1[nH]c(Nc2ccccc2)nc2c1ncn2CCCCO; assay: (§1) Activity of Herpes B virus recombinant thymidine kinase; conditions: Macacine alphaherpesvirus 1
[9] = substrate: Cc1cn([C@H]2C[C@H](O)[C@@H](CO)O2)c(=O)[nH]c1=O; assay: as §1; conditions: Macacine alphaherpesvirus 1
[10] = substrate: Cc1cn([C@H]2C[C@H](O)[C@@H](CO)O2)c(=O)[nH]c1=O; conditions: Human alphaherpesvirus 1

Molecule | Activity [1] | IC50 (Thymidine kinase) | EC50 (Human alphaherpesvirus 1) | EC50 [2] | EC50 [3] | CC50 at 48 h [4] | other results
CCCc1cn([C@H]2C[C@H](O)[C@@H](CO)O2)c(=O)[nH]c1=O | 31% | 4.2 µM |  |  |  |  | 
Nc1nc2c(ncn2CCCCO)c(=O)[nH]1 | 94% | 177 µM |  |  |  |  | 
CCc1cn([C@@H]2C[C@H](O)[C@@H](CO)O2)c(=O)[nH]c1=O |  | 52 µM |  |  |  |  | 
O=c1[nH]c(Nc2cccc(C(F)(F)F)c2)nc2nc[nH]c12 |  | 3.5 µM |  |  |  |  | 
O=c1[nH]c(Nc2ccccc2)nc2c1ncn2CCCCO | 200% |  | 330 µM | > 330 µM | > 330 µM | > 660 µM | 
CN(C)CCCCn1cnc2c(O)nc(Nc3ccccc3)nc21 |  | 1.2 µM |  |  |  |  | 
Cc1cc(=O)[nH]c(=O)n1[C@@H]1O[C@H](CO)[C@@H](O)[C@H]1O |  |  |  |  |  |  | Activity [5]: inactive
O=c1ccn([C@@H]2O[C@H](CO)[C@H](O)[C@@H]2O)c(=O)[nH]1 |  |  |  |  |  |  | Activity [5]: inactive
O=c1[nH]c(=O)n(C2C[C@H](O)[C@@H](CO)O2)cc1/C=C/Br (single isomer, unassigned) | inactive |  |  |  |  |  | Activity [6]: inactive
O=c1[nH]c(=O)n(C2C[C@H](O)[C@@H](CO)O2)cc1I (single isomer, unassigned) | 94% |  |  |  |  |  | 
Cc1cn([C@H]2C[C@H](O)[C@@H](CO)O2)c(=O)[nH]c1=O (stereo in doubt; form 1) | 130% |  |  |  |  |  | 
Cc1cn([C@H]2C[C@H](O)[C@@H](CO)O2)c(=O)[nH]c1=O (stereo in doubt; form 2) | 100% |  |  |  |  |  | 
Nc1nc2c(ncn2COCCO)c(=O)[nH]1 [ACYCLOVIR] | inactive |  | 1.4 µM | 112 µM | 118 µM | > 890 µM | EC50 [7]: 47.5 µM; Activity [6]: inactive
O=c1[nH]c(=O)n([C@H]2C[C@H](O)[C@@H](CO)O2)cc1/C=C/Br [BRIVUDINE] | inactive |  | 0.12 µM | > 300 µM | > 300 µM | > 600 µM | Activity [6]: inactive
Nc1ccn(C[C@@H](CO)OCP(=O)(O)O)c(=O)n1 [CIDOFOVIR] | inactive | 900 µM | 14.4 µM | 28.9 µM | 21.6 µM | > 720 µM | Activity [6]: inactive
CCc1cn([C@H]2C[C@H](O)[C@@H](CO)O2)c(=O)[nH]c1=O [EDOXUDINE] | 82% | 0.15 µM | 2.1 µM | 37.4 µM | 48 µM | > 780 µM | EC50 [7]: 13.3 µM
O=C(O)P(=O)(O)O [FOSCARNET] |  |  | 250 µM | > 500 µM | 250 µM | > 1 µM | 
Nc1nc(O)c2ncn(COC(CO)CO)c2n1 [GANCICLOVIR] |  | 800 µM |  |  |  | 666 µM | 
Nc1nc2c(ncn2COC(CO)CO)c(=O)[nH]1 [GANCICLOVIR] | inactive |  | 0.7 µM | 14.5 µM | 23.5 µM |  | EC50 [7]: 19.2 µM; Activity [6]: inactive
O=c1[nH]c(=O)n([C@H]2C[C@H](O)[C@@H](CO)O2)cc1I [IDOXURIDINE] | 58% |  | 2.8 µM | 11.2 µM | 8.5 µM | 6.8 µM | 
Nc1nc(O)c2ncn(CCC(CO)CO)c2n1 [PENCICLOVIR] | 72% |  | 4.7 µM | 17 µM | 25.3 µM |  | EC50 [7]: 17.3 µM
Nc1nc2c(ncn2CCC(CO)CO)c(=O)[nH]1 [PENCICLOVIR] |  | 84.4 µM |  |  |  | > 790 µM | 
O=c1[nH]c(=O)n([C@H]2C[C@H](O)[C@@H](CO)O2)cc1C(F)(F)F [TRIFLURIDINE] | 55% | 2 µM | < 1.7 µM | 1.7 µM | 3.4 µM | 50.6 µM | 
Nc1ncnc2c1ncn2[C@@H]1O[C@H](CO)[C@@H](O)[C@@H]1O [VIDARABINE] |  |  | 7 µM | 28 µM | 35 µM | 38 µM | Activity [5]: inactive
B1 |  |  |  |  |  |  | Km [8]: 7.4 µM; Vmax (nmol/hr/microg) [8]: 3.9; Km [9]: 0.7 µM and 0.65 µM; Vmax (nmol/hr/microg) [9]: 0.2 and 0.15
B2 |  |  |  |  |  |  | Km [10]: 1 µM
